# Patent US9913827B2, “Bendamustine derivatives and methods of using same” (IGNYTA, INC., priority 2012, dated 2018)
# Like-named read-outs stand apart in the source and are kept apart here. Marks after values point to notes of the source that are not given here.
# Assays:
# [1] = Rat plasma pharmacokinetics at 3 mg-eq/kg i.v.; details: solution formulation 3 mg-eq/kg i.v.
# [2] = tested on: H460 tumor cells (large cell lung cancer); test: Nude mouse H460 tumor efficacy study; format: in vivo, nu/nu mouse
# Experimental: 2×10^6 cells/100 ul in the mix of medium and Matrigel (1:1 ratio) solution was injected into right back flank of each nu/nu mouse. The implanted mice were monitored and measured with electric calipers. The study started when the tumors reached ˜150 mm^3 in size. The mice were measured and randomized into 9 groups with 10 mice in each group per the below table: […]
# [3] = tested on: RPMI 8226 (Human Plasmacytoma, Myeloma B Cells); format: in vivo, CB.17 SCID female mice; details: day 46
# Experimental: RPMI 8226 (Human Plasmacytoma, Myeloma B Cells) ATCC #CCL-155;
# 80 CB.17 SCID female mice, 4-6 weeks old, 16-20 grams, obtained from Harlan animal breeding center
# Cells (originated from ATCC) were cultured on RPMI medium. Cell suspension was centrifuged and resuspended in 50% Matrigel/HBSS to a final concentration of 7×10^7 cells/ml. The suspension was implanted s.c. in the right flank of the anesthetized mouse at a volume of 100 μl.
# Seven ml saline were added to the original vial containing 3.5 mg powder resulting in 0.5 mg/ml. Three ml of this solution were added to 27 ml saline to receive 0.05 mg/ml concentration.
# bendamustine preparation: 13.5 mg was dissolved in 3.6 ml of 1:1 mixture of 0.9% saline/5% mannitol just before the treatment. 1.05 ml of this solution was added to 0.95 ml diluent for 2 mg/ml solution.
# 1.05 ml of this solution was added to 0.95 ml diluent for 2 mg/ml solution.
# On day 21, mice were sorted by the optimal average tumor volume (˜150 mm^3) and were allocated into eight groups of 9 mice each.
# [formula] The analysis of weight gain and tumor volume progression was made using one-way ANOVA followed by Tukey post-hoc comparisons. Results
# [4] = tested on: MDA-MB-231 xenografts; test: Nude mouse MDA-MB-231 tumor efficacy study; format: in vivo, athymic nude mice
# Experimental: Charles River Labs athymic nude mice were subcutaneous injected with 5×10^6 human tumor cells in matrigel. The tumor volume was monitored until an average tumor size of ˜150 mm^3 was obtained in the mouse population The mice were then randomized in to one of the nine treatment groups (summarized in table below) with a population of 10 mice per group (n=10). Each of the formulations was dosed at 100 μL fixed volume via tail vein injection on day 1 and day 2 of the study. Mice were weighed and the tumor volume measured every 3-4 days for 3 weeks of the study duration.
# [5] = Tumor efficacy PK group, MB-231 tumor-bearing mice: tumor and plasma levels; details: for Ester level in Plasma at 1 hour / Ester level in Tumor at 1 hour: 80 mg/kg i.v.
# Experimental: (§1) A portion of the tumor bearing mice were dosed as a satellite PK group. Each group was dosed as described for the tumor efficacy group, however the PK group was euthanized and tissue samples collected at 1, 3 and 6 hours post dosing on day 2. The tissues collected included blood, lung, liver and tumor. Samples were analyzed for bendamustine HCl and the corresponding ester analogue as described in the LC-MS protocol section.
# (§2) Plasma and other tissues were prepared for high performance liquid chromatography (HPLC)/mass spectrometric analysis according to a standard protocol following protein precipitation with acetonitrile containing an internal standard. The samples were then analyzed for both bendamustine HCl and bendamustine esters of the invention and alprenolol (internal standard) via HPLC coupled with tandem mass spectrometry. Tissue samples were homogenized in sodium phosphate buffer and the value obtained from the assay was multiplied by 3 to correct for dilution during processing.
# [6] = Tumor efficacy PK group, H-460 tumor-bearing mice: tumor and plasma levels; details: for Ester level in Plasma at 1 hour / Ester level in Tumor at 1 hour: 80 mg/kg i.v.
# Experimental: The formulations were administrated as 100 μL dose volume through tail vein injection within 30 minutes after compounds were formulated. All the mice were weighed and tumors measured twice weekly. At the last day of the study, plasma, tumor, lung, liver, spleen, left kidney, brain and legs were collected and quickly frozen for further analysis two hours post-dosing.
# as §1, §2
# [7] = tested on: MB-231 (HBC); test: MTS cell assay (cell proliferation), MB-231; format: cell-based; details: Homo sapiens, 72 hours
# Experimental: Charles River Labs athymic nude mice bearing MDA-MB-231 breast carcinoma cell line subcutaneous xenografts (5×10^6 cells in matrigel) were sacrificed to make a tumor isolate. Using sterile instruments and working aseptically, the tumors were removed from the euthanized animal. The tumor was placed in a 50 mL sterile conical tube and 5 mL of trypsin was added. The tumor was cut into small pieces and incubated at 37° C. for 30 minutes. After incubation, a cell strainer was placed on a second, sterile, 50 mL conical tube and the contents of the first tube were placed in the cell strainer. The tissue was forced through the filter using the flat end of a syringe plunger. The cell strainer was washed with 5 mLs of media containing FBS. The cells were spun down and the supernatant was discarded. The cells were resuspended in 20 mLs of complete media containing P/S and placed in a 75 cm flask.
# (§3) Human carcinoma cells (2,000 cells/well) were incubated with the desired concentration of the test molecule (0-200 μM) for 72 hours. The cells were then incubated with MTS solution (Promega) for 1-2 hours, and the compounds effects on cell proliferation was determined by measuring the absorbance at 490 nm. Cell growth was expressed as a percent of the appropriate control (placebo). […] All data reported was the mean±SE of three independent experiments.
# [8] = tested on: H-460 (NSCLC); test: MTS cell assay (cell proliferation), H-460; format: cell-based; details: Homo sapiens, NCI-H460, 72 hours
# Experimental: as §3
# [9] = Solution, 37.5 mg/kg i.v. day 1 and 2
# [10] = HSA nanoparticle, 80 mg/kg i.v.
# [11] = HSA nanoparticle, 80 mg/kg i.v. day 1 and 2
# [12] = Solution, 80 mg/kg i.v. day 1 and 2
structure (smiles),measurement,setting,value
"CCCCCC(CCCC)OC(=O)CCCc1nc2cc(N(CCCl)CCCl)ccc2n1C (stereo not shown) [5-decanyl ester, 4-{5-[Bis-(chloroethyl)-amino]-1-methyl-1H-benzimidazol-2-yl}butyric acid 5-decyl ester]",Plasma levels of the dosed Ester,[1],All < MQL
"Cn1c(CCCC(=O)O)nc2cc(N(CCCl)CCCl)ccc21 [Bendamustine, 4-[5-[bis(2-chloroethyl)amino]-1-methylbenzimidazol-2-yl]butanoic acid]",% Morbidity,"[2]; Solution, 37.5 mg/kg i.v.",0/0%
same,% Mortality,"[2]; Solution, 37.5 mg/kg i.v.",0/0%
same,% TGI,[3]; 20 mg/kg iv on days 1 and 2,66*** %
same,No. of CR,[3]; 20 mg/kg iv on days 1 and 2,0
same,No. of PR,[3]; 20 mg/kg iv on days 1 and 2,0
same,"Δ mean tumor volume, (mean ± se)",[3]; 20 mg/kg iv on days 1 and 2,205 ± 44
same,No. of CR,[3]; 37.5 mg/kg iv on days 1 and 2,0
same,No. of PR,[3]; 37.5 mg/kg iv on days 1 and 2,0
same,"Δ mean tumor volume, (mean ± se)",[3]; 37.5 mg/kg iv on days 1 and 2,113 ± 23
same,% TGI,"[3]; 37.5 mg/kg iv on days 1 and 2, 37.5 mg/kg",81%
same,% Morbidity,[4]; [9],10%
same,% Mortality,[4]; [9],0%
same,% Tumor Inh.,[4]; [9],77%
same,BM1 level in Plasma at 1 hour,"[5]; Solution, 37.5 mg/kg i.v.",906 ng/mL
same,BM1 level in Tumor at 1 hour,"[5]; Solution, 37.5 mg/kg i.v.",558 ng/mL
same,BM1 level in Plasma at 1 hour,"[6]; Solution, 37.5 mg/kg i.v.",1550 ng/mL
same,BM1 level in Tumor at 1 hour,"[6]; Solution, 37.5 mg/kg i.v.",1472 ng/mL
"Cn1c(CCCC(=O)OC2CCCCC2)nc2cc(N(CCCl)CCCl)ccc21 [Cy-hexyl bendamustine ester, 4-{5-[Bis-(chloroethyl)-amino]-1-methyl-1H-benzimidazol-2-yl}butyric acid cyclohexyl ester]",Plasma levels of the dosed Ester,[1],All < MQL
"CCCCCCCCOC(=O)CCCc1nc2cc(N(CCCl)CCCl)ccc2n1C [bendamustine C8 ester, 4-{5-[Bis-(chloroethyl)-amino]-1-methyl-1H-benzimidazol-2-yl}butyric aid octyl ester]",IC50,[7],53.1 µM
same,IC50,[8],49 µM
"CCCCCCCCCCCCCCOC(=O)CCCc1nc2cc(N(CCCl)CCCl)ccc2n1C [bendamustine C14 ester, 4-{5-[Bis-(chloroethyl)-amino]-1-methyl-1H-benzimidazol-2-yl}butyric acid tetradecyl ester]",% Morbidity,[2]; [10],10%
same,% Mortality,[2]; [10],0%
same,% Tumor Inh.,[2]; [10],40%
same,% Morbidity,"[2]; Solution, 80 mg/kg i.v.",100%
same,% Mortality,"[2]; Solution, 80 mg/kg i.v.",40%
same,% Tumor Inh.,"[2]; Solution, 80 mg/kg i.v.",81%
same,% Morbidity,[4]; [11],60%
same,% Mortality,[4]; [11],0%
same,% Morbidity,[4]; [12],40%
same,% Mortality,[4]; [12],0%
same,% Tumor Inh.,[4]; [12],90%
same,Ester level in Plasma at 1 hour,[5]; HSA nanoparticle,5727 ng/mL
same,Ester level in Tumor at 1 hour,[5]; HSA nanoparticle,10430 ng/mL
same,Ester level in Plasma at 1 hour,[5]; Solution,14 ng/mL
same,Ester level in Tumor at 1 hour,[5]; Solution,396 ng/mL
same,Ester level in Plasma at 1 hour,[6]; HSA nanoparticle,3648 ng/mL
same,Ester level in Tumor at 1 hour,[6]; HSA nanoparticle,4570 ng/mL
same,Ester level in Plasma at 1 hour,[6]; Solution,32233 ng/mL
same,Ester level in Tumor at 1 hour,[6]; Solution,8570 ng/mL
